Results on five molecules are retold here after PubChem BioAssay AID2060360 (Molecular Pharmacology Branch, DTP, NCI, 2025).

“And” between values parts separate entries of the source, which are not always exact repeats. Equal values may be shown once.

The test system of the assay is 282377-053-R-J1-PDC tumor spheroids, viability. Description: Anticancer human tumor 282377-053-R-J1-PDC patient-derived colon adenocarcinoma cell line growth inhibition [TAK]. Conditions: spheroids with HUVEC and MSC; for viability, T/C: stronger effect = lower value. Put shortly:
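Drug combinations, each paired with TAK-243 or ipatasertib, were tested on multi-cell spheroids of 60% malignant cells, 25% HUVEC and 15% hMSC. Top concentrations were at or near the clinical Cmax (10 microM if undetermined), decreasing by half-log; viability is given as % test/control.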

[1] abbreviates: curve of first compound, second compound 0.3 µM.
The mark [2] stands for this setting: curve of first compound, second compound 0.949 µM.
Setting [3] is: curve of first compound, second compound 3 µM.
Where [4] appears, read: curve of first compound, second compound 9.49 µM.
Setting [5] is: curve of first compound, second compound 30 µM.
Where [6] appears, read: second compound 0.3 µM, first compound 0.000316 µM.
Setting [7] is: second compound 0.3 µM, first compound 0.001 µM.
[8] abbreviates: second compound 0.3 µM, first compound 0.00316 µM.
Setting [9] is: second compound 0.3 µM, first compound 0.01 µM.
The mark [10] stands for this setting: second compound 0.3 µM, first compound 0.0316 µM.
The mark [11] stands for this setting: second compound 0.3 µM, first compound 0.1 µM.
Where [12] appears, read: second compound 0.949 µM, first compound 0.000316 µM.
[13] abbreviates: second compound 0.949 µM, first compound 0.001 µM.
Setting [14] is: second compound 0.949 µM, first compound 0.00316 µM.
Where [15] appears, read: second compound 0.949 µM, first compound 0.01 µM.
Setting [16] is: second compound 0.949 µM, first compound 0.0316 µM.
[17] abbreviates: second compound 0.949 µM, first compound 0.1 µM.
[18] abbreviates: second compound 3 µM, first compound 0.000316 µM.
[19] abbreviates: second compound 3 µM, first compound 0.001 µM.
The mark [20] stands for this setting: second compound 3 µM, first compound 0.00316 µM.
Where [21] appears, read: second compound 3 µM, first compound 0.01 µM.
[22] abbreviates: second compound 3 µM, first compound 0.0316 µM.
Setting [23] is: second compound 3 µM, first compound 0.1 µM.
Setting [24] is: second compound 9.49 µM, first compound 0.000316 µM.
Setting [25] is: second compound 9.49 µM, first compound 0.001 µM.
The mark [26] stands for this setting: second compound 9.49 µM, first compound 0.00316 µM.
Setting [27] is: second compound 9.49 µM, first compound 0.01 µM.
[28] abbreviates: second compound 9.49 µM, first compound 0.0316 µM.
[29] abbreviates: second compound 9.49 µM, first compound 0.1 µM.
Setting [30] is: second compound 30 µM, first compound 0.000316 µM.
Setting [31] is: second compound 30 µM, first compound 0.001 µM.
[32] abbreviates: second compound 30 µM, first compound 0.00316 µM.
Setting [33] is: second compound 30 µM, first compound 0.01 µM.
Setting [34] is: second compound 30 µM, first compound 0.0316 µM.
Setting [35] is: second compound 30 µM, first compound 0.1 µM.
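Note: spheroids exposed to drugs for seven days before readout.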

Take `CC(C)CC(NC(=O)CNC(=O)c1cc(Cl)ccc1Cl)B1OC(=O)CC(CC(=O)O)(C(=O)O)O1` (centres undefined) + CC(C)NCC(C(=O)N1CCN(c2ncnc3c2C(C)CC3O)CC1)c1ccc(Cl)cc1: the IC50 (commonly the concentration that inhibits the measured activity by half) by setting is: under setting [1], 53.8 nM; under setting [2], 47.9 nM; under setting [3], 43.8 nM; under setting [4], 39.3 nM; under setting [5], 36.3 nM. Besides, the viability, T/C (commonly the ratio of treated to control) was 99.5% under setting [6]; 93.9% under setting [7]; 94.3% under setting [8]; 92.7% under setting [9]; 89.7% under setting [10]; 3.57% under setting [11]. For the same molecule, the viability, T/C was 100% under setting [12]; 88.3% under setting [13]; 87.1% under setting [14]; 94.5% under setting [15]; 77.1% under setting [16]; 1.73% under setting [17]. Moreover, the viability, T/C under setting [18] is 82.4%; the viability, T/C under setting [19] is 87.8%; the viability, T/C under setting [20] was 84.2%; the viability, T/C under setting [21] is 84.5%; the viability, T/C under setting [22] was 69.2%; the viability, T/C under setting [23] was 1.39%. For the same molecule, the viability, T/C was 81.3% under setting [24]; 79.3% under setting [25]; 81.7% under setting [26]; 77.5% under setting [27]; 61.5% under setting [28]; 1.53% under setting [29]. In addition, the viability, T/C is, setting by setting: under setting [30], 70.2%; under setting [31], 74.6%; under setting [32], 67.7%; under setting [33], 66.8%; under setting [34], 57.3%; under setting [35], 0.99%.
With `Cc1nc(NC(=O)N2CCCC2C(N)=O)sc1-c1ccnc(C(C)(C)C(F)(F)F)c1` (centres undefined) + CC(C)NCC(C(=O)N1CCN(c2ncnc3c2C(C)CC3O)CC1)c1ccc(Cl)cc1, the IC50 is > 10000 nM under setting [1]; > 10000 nM under setting [2]; > 10000 nM under setting [3]; > 10000 nM under setting [4]; 5510 nM under setting [5]. Also, the viability, T/C by setting is: under setting [10], 99.7%; under setting [11], 91.4%; (second compound 0.3 µM, first compound 0.316 µM) 91.7%; (second compound 0.3 µM, first compound 1 µM) 89.8%; (second compound 0.3 µM, first compound 3.16 µM) 79.8%; (second compound 0.3 µM, first compound 10 µM) 70.4%. Also, the viability, T/C by setting is: under setting [16], 87.2%; under setting [17], 91.5%; (second compound 0.949 µM, first compound 0.316 µM) 84%; (second compound 0.949 µM, first compound 1 µM) 81%; (second compound 0.949 µM, first compound 3.16 µM) 79.1%; (second compound 0.949 µM, first compound 10 µM) 81.3%. The viability, T/C reads like this: under setting [22], 83.5%; under setting [23], 83.9%; (second compound 3 µM, first compound 0.316 µM) 80%; (second compound 3 µM, first compound 1 µM) 77.3%; (second compound 3 µM, first compound 3.16 µM) 76.3%; (second compound 3 µM, first compound 10 µM) 77.3%. Moreover, the viability, T/C was 81.7% under setting [28]; 81% under setting [29]; 76.1% (second compound 9.49 µM, first compound 0.316 µM); 75.8% (second compound 9.49 µM, first compound 1 µM); 69.6% (second compound 9.49 µM, first compound 3.16 µM); 64% (second compound 9.49 µM, first compound 10 µM). Further, the viability, T/C is 71.7% under setting [34]; 69.8% under setting [35]; 66.4% (second compound 30 µM, first compound 0.316 µM); 58% (second compound 30 µM, first compound 1 µM); 56.1% (second compound 30 µM, first compound 3.16 µM); 45.1% (second compound 30 µM, first compound 10 µM).
Regarding `COC1CC2CCC(C)C(O)(O2)C(=O)C(=O)N2CCCCC2C(=O)OC(C(C)CC2CCC(OCCO)C(OC)C2)CC(=O)C(C)C=C(C)C(O)C(OC)C(=O)C(C)CC(C)C=CC=CC=C1C` (centres undefined) + CC(C)NCC(C(=O)N1CCN(c2ncnc3c2C(C)CC3O)CC1)c1ccc(Cl)cc1, the IC50 under setting [1] was > 100 nM; the IC50 under setting [2] was > 100 nM; the IC50 under setting [3] is > 100 nM; the IC50 under setting [4] is > 100 nM; the IC50 under setting [5] is 8.56 nM. In addition, the viability, T/C is, setting by setting: under setting [6], 93.1%; under setting [7], 91.7%; under setting [8], 94%; under setting [9], 95%; under setting [10], 93.7%; under setting [11], 91.4%. For the same molecule, the viability, T/C is 93.3% under setting [12]; 87% under setting [13]; 91.8% under setting [14]; 91.8% under setting [15]; 87.7% under setting [16]; 89.4% under setting [17]. Also, the viability, T/C is, setting by setting: under setting [18], 82.2%; under setting [19], 87.6%; under setting [20], 80.9%; under setting [21], 82.2%; under setting [22], 82.2%; under setting [23], 79.1%. Moreover, the viability, T/C was 81.2% under setting [24]; 77.8% under setting [25]; 73.5% under setting [26]; 74.9% under setting [27]; 65.8% under setting [28]; 60.4% under setting [29]. Besides, the viability, T/C reads like this: under setting [30], 61.6%; under setting [31], 64.3%; under setting [32], 55.8%; under setting [33], 48.3%; under setting [34], 39.9%; under setting [35], 31%.
In the case of `CC(C)(C)c1nc(-c2cccc(NS(=O)(=O)c3c(F)cccc3F)c2F)c(-c2ccnc(N)n2)s1`, the viability, T/C is 85.2% and 87.2% (compound 0.0316 µM); 84.1% and 87.2% (compound 0.1 µM); 78.2% and 83.8% (compound 0.316 µM); 78.9% and 81.5% (compound 1 µM); 79% and 76% (compound 3.16 µM); 69.4% and 69.9% (compound 10 µM). Further, the IC50 (curve of compound) is > 10000 nM.
Consider `CCCS(=O)(=O)Nc1ccc(F)c(C(=O)c2c[nH]c3ncc(-c4ccc(Cl)cc4)cc23)c1F`, for which the viability, T/C by setting is: (compound 0.316 µM) 86.4% and 86.2%; (compound 1 µM) 82.3% and 82.7%; (compound 3.16 µM) 82.7% and 85.6%; (compound 10 µM) 21.3% and 27%; (compound 31.6 µM) 89.4% and 84.6%; (compound 100 µM) 75.5% and 94%. Moreover, under “curve of compound”, the IC50 was > 100000 nM.
